Experimental data published in patent US20230389548A1, “MIXTURES OF PYRIMIDINES AS HERBICIDAL COMPOSITIONS” (SYNGENTA CROP PROTECTION AG, priority 2020, published 2023).

What was measured:
Test in all cases: Post-emergence glasshouse spray test, visual percentage phytotoxicity after 13 days
Type in all cases: in vivo
[1] = system: Digitaria sanguinalis (DIGSA); conditions: for DIGSA percentage phytotoxicity: B1
Description: (§1) Seeds of Setaria faberi (SETFA), Echinochloa crus-galli (ECHCG), Digitaria sanguinalis (DIGSA), Lolium perenne (LOLPE), Alopecurus myosuroides (ALOMY), Chenopodium album (CHEAL), Ipomoea hederacea (IPOHE), Stellaria media (STEME), Abutilon threophrasti (ABUTH), Amaranthus retroflexus (AMARE) were sown in standard sterilised soil in pots. After cultivation for 8 days under controlled conditions in a glasshouse (at 24/19° C., day/night; 16 hours light; no humidity control), the plants were sprayed at 500 l/Ha with an aqueous spray solution derived from the formulation of the technical active ingredients in a small amount of acetone and a solvent and emulsifier mixture referred to as IF50 (11.12% Emulsogen EL360™+44.44% N-methylpyrrolidone+44.44% Dowanol DPM glycol ether), to create a 50 g/l solution which was then diluted using 0.2% Genapol XO80 (CAS Number: 9043-30-5) as diluent to give the desired final dose of test compound.
(§2) Where active ingredients were applied as mixtures, aqueous spray solutions were prepared as above, containing both active ingredients.
(§3) The test plants were then grown under controlled conditions in a glasshouse (at 24/18° C., day/night; 15 hours light; 50% humidity) and watered twice daily. After 13 days, the test was evaluated visually for percentage phytotoxicity to the plants (where 100=total damage to plant; 0=no damage to plant; and NC=not captured) when compared to control untreated plants. Two to four replicates were applied for each treatment in a randomised block test design.
(§4) 22., E=X+Y−(X*Y/100), where
(§5) X=average percent phytotoxicity of herbicide A when applied at a certain rate Y=average percent phytotoxicity using herbicide B when applied at a certain rate E=the expected effect of the mixture of herbicides A and B as calculated from the Colby formula.

[2] = system: Chenopodium album (CHEAL); conditions: for CHEAL percentage phytotoxicity: B1
Description: as §1, §2, §3, §4, §5

[3] = system: Ipomoea hederacea (IPOHE); conditions: for IPOHE percentage phytotoxicity: B1; for Observed phytotoxicity IPOHE: B2.4.5
Description: as §1, §2, §3, §4, §5

Lolium perenne (LOLPE) = conditions: for LOLPE percentage phytotoxicity: B1
Description: as §1, §2, §3, §4, §5

Setaria faberi (SETFA) = conditions: for SETFA percentage phytotoxicity: B1
Description: as §1, §2, §3, §4, §5

[4] = system: Alopecurus myosuroides (ALOMY); conditions: for ALOMY percentage phytotoxicity: B1
Description: as §1, §2, §3, §4, §5

[5] = system: Abutilon threophrasti (ABUTH); conditions: for ABUTH percentage phytotoxicity: B1
Description: as §1, §2, §3, §4, §5

[6] = system: Amaranthus retroflexus (AMARE); conditions: for AMARE percentage phytotoxicity: B1
Description: as §1, §2, §3, §4, §5

Stellaria media (STEME) = conditions: B1
Description: as §1, §2, §3, §4, §5

CS(=O)(=O)c1ccc(C(=O)C2C(=O)CCCC2=O)c(Cl)c1OCCC1OCCO1 [B-II]
DIGSA percentage phytotoxicity ([1]; 0.625 g/ha post-emergence): 0%
DIGSA percentage phytotoxicity ([1]; 1.25 g/ha post-emergence): 0%
DIGSA percentage phytotoxicity ([1]; 2.5 g/ha post-emergence): 0%
DIGSA percentage phytotoxicity ([1]; 5 g/ha post-emergence): 0%
DIGSA percentage phytotoxicity ([1]; 10 g/ha post-emergence): 0%
Observed phytotoxicity DIGSA ([1]; B2.4.2, 2.5 g/ha post-emergence): 0%
Observed phytotoxicity DIGSA ([1]; B2.4.2, 5 g/ha post-emergence): 0%
Observed phytotoxicity DIGSA ([1]; B2.4.2, 10 g/ha post-emergence): 0%
CHEAL percentage phytotoxicity ([2]; 0.625 g/ha post-emergence): 0%
CHEAL percentage phytotoxicity ([2]; 1.25 g/ha post-emergence): 0%
CHEAL percentage phytotoxicity ([2]; 2.5 g/ha post-emergence): 38%
CHEAL percentage phytotoxicity ([2]; 5 g/ha post-emergence): 53%
CHEAL percentage phytotoxicity ([2]; 10 g/ha post-emergence): 65%
Observed phytotoxicity CHEAL ([2]; B2.4.7, 1.25 g/ha post-emergence): 0%
IPOHE percentage phytotoxicity ([3]; 0.625 g/ha post-emergence): 3%
IPOHE percentage phytotoxicity ([3]; 1.25 g/ha post-emergence): 10%
IPOHE percentage phytotoxicity ([3]; 2.5 g/ha post-emergence): 23%
IPOHE percentage phytotoxicity ([3]; 5 g/ha post-emergence): 38%
IPOHE percentage phytotoxicity ([3]; 10 g/ha post-emergence): 48%
Observed phytotoxicity IPOHE ([3]; 2.5 g/ha post-emergence): 23%
Observed phytotoxicity IPOHE ([3]; 10 g/ha post-emergence): 48%
LOLPE percentage phytotoxicity (Lolium perenne (LOLPE); 0.625 g/ha post-emergence): 0%
LOLPE percentage phytotoxicity (Lolium perenne (LOLPE); 1.25 g/ha post-emergence): 0%
LOLPE percentage phytotoxicity (Lolium perenne (LOLPE); 2.5 g/ha post-emergence): 0%
LOLPE percentage phytotoxicity (Lolium perenne (LOLPE); 5 g/ha post-emergence): 0%
LOLPE percentage phytotoxicity (Lolium perenne (LOLPE); 10 g/ha post-emergence): 0%
Observed phytotoxicity LOLPE (Lolium perenne (LOLPE); B2.4.3, 5 g/ha post-emergence): 0%
Observed phytotoxicity LOLPE (Lolium perenne (LOLPE); B2.4.3, 10 g/ha post-emergence): 0%
SETFA percentage phytotoxicity (Setaria faberi (SETFA); 0.625 g/ha post-emergence): 0%
SETFA percentage phytotoxicity (Setaria faberi (SETFA); 1.25 g/ha post-emergence): 0%
SETFA percentage phytotoxicity (Setaria faberi (SETFA); 2.5 g/ha post-emergence): 0%
SETFA percentage phytotoxicity (Setaria faberi (SETFA); 5 g/ha post-emergence): 0%
SETFA percentage phytotoxicity (Setaria faberi (SETFA); 10 g/ha post-emergence): 3%
Observed phytotoxicity SETFA (Setaria faberi (SETFA); B2.4.1, 5 g/ha post-emergence): 0%
ALOMY percentage phytotoxicity ([4]; 0.625 g/ha post-emergence): 0%
ALOMY percentage phytotoxicity ([4]; 1.25 g/ha post-emergence): 0%
ALOMY percentage phytotoxicity ([4]; 2.5 g/ha post-emergence): 0%
ALOMY percentage phytotoxicity ([4]; 5 g/ha post-emergence): 0%
ALOMY percentage phytotoxicity ([4]; 10 g/ha post-emergence): 0%
Observed phytotoxicity ALOMY ([4]; B2.4.4, 10 g/ha post-emergence): 0%
ABUTH percentage phytotoxicity ([5]; 0.625 g/ha post-emergence): 3%
ABUTH percentage phytotoxicity ([5]; 1.25 g/ha post-emergence): 38%
ABUTH percentage phytotoxicity ([5]; 2.5 g/ha post-emergence): 50%
ABUTH percentage phytotoxicity ([5]; 5 g/ha post-emergence): 58%
ABUTH percentage phytotoxicity ([5]; 10 g/ha post-emergence): 63%
Observed phytotoxicity ABUTH ([5]; B2.4.6, 0.625 g/ha post-emergence): 3%
AMARE percentage phytotoxicity ([6]; 0.625 g/ha post-emergence): 0%
AMARE percentage phytotoxicity ([6]; 1.25 g/ha post-emergence): 5%
AMARE percentage phytotoxicity ([6]; 2.5 g/ha post-emergence): 10%
AMARE percentage phytotoxicity ([6]; 5 g/ha post-emergence): 28%
AMARE percentage phytotoxicity ([6]; 10 g/ha post-emergence): 48%
Observed phytotoxicity AMARE ([6]; B2.4.8, 2.5 g/ha post-emergence): 10%
STEME percentage phytotoxicity (Stellaria media (STEME); 0.625 g/ha post-emergence): 0%
STEME percentage phytotoxicity (Stellaria media (STEME); 1.25 g/ha post-emergence): 13%
STEME percentage phytotoxicity (Stellaria media (STEME); 2.5 g/ha post-emergence): 45%
STEME percentage phytotoxicity (Stellaria media (STEME); 5 g/ha post-emergence): 35%
STEME percentage phytotoxicity (Stellaria media (STEME); 10 g/ha post-emergence): 38%

COc1c(Cl)ccc(-c2nc(C(=O)OCc3ccccc3)c(Cl)c(N)c2F)c1F [B-I]
DIGSA percentage phytotoxicity ([1]; 0.625 g/ha post-emergence): 0%
DIGSA percentage phytotoxicity ([1]; 1.25 g/ha post-emergence): 3%
DIGSA percentage phytotoxicity ([1]; 2.5 g/ha post-emergence): 5%
DIGSA percentage phytotoxicity ([1]; 5 g/ha post-emergence): 0%
DIGSA percentage phytotoxicity ([1]; 10 g/ha post-emergence): 10%
Observed phytotoxicity DIGSA ([1]; B2.5.1, 5 g/ha post-emergence): 0%
CHEAL percentage phytotoxicity ([2]; 0.625 g/ha post-emergence): 63%
CHEAL percentage phytotoxicity ([2]; 1.25 g/ha post-emergence): 63%
CHEAL percentage phytotoxicity ([2]; 2.5 g/ha post-emergence): 60%
CHEAL percentage phytotoxicity ([2]; 5 g/ha post-emergence): 70%
CHEAL percentage phytotoxicity ([2]; 10 g/ha post-emergence): 75%
IPOHE percentage phytotoxicity ([3]; 0.625 g/ha post-emergence): 13%
IPOHE percentage phytotoxicity ([3]; 1.25 g/ha post-emergence): 33%
IPOHE percentage phytotoxicity ([3]; 2.5 g/ha post-emergence): 58%
IPOHE percentage phytotoxicity ([3]; 5 g/ha post-emergence): 55%
IPOHE percentage phytotoxicity ([3]; 10 g/ha post-emergence): 53%
LOLPE percentage phytotoxicity (Lolium perenne (LOLPE); 0.625 g/ha post-emergence): 0%
LOLPE percentage phytotoxicity (Lolium perenne (LOLPE); 1.25 g/ha post-emergence): 0%
LOLPE percentage phytotoxicity (Lolium perenne (LOLPE); 2.5 g/ha post-emergence): 0%
LOLPE percentage phytotoxicity (Lolium perenne (LOLPE); 5 g/ha post-emergence): 0%
LOLPE percentage phytotoxicity (Lolium perenne (LOLPE); 10 g/ha post-emergence): 5%
Observed phytotoxicity LOLPE (Lolium perenne (LOLPE); B2.5.2, 5 g/ha post-emergence): 0%
SETFA percentage phytotoxicity (Setaria faberi (SETFA); 0.625 g/ha post-emergence): 0%
SETFA percentage phytotoxicity (Setaria faberi (SETFA); 1.25 g/ha post-emergence): 0%
SETFA percentage phytotoxicity (Setaria faberi (SETFA); 2.5 g/ha post-emergence): 5%
SETFA percentage phytotoxicity (Setaria faberi (SETFA); 5 g/ha post-emergence): 3%
SETFA percentage phytotoxicity (Setaria faberi (SETFA); 10 g/ha post-emergence): 20%
ALOMY percentage phytotoxicity ([4]; 0.625 g/ha post-emergence): 0%
ALOMY percentage phytotoxicity ([4]; 1.25 g/ha post-emergence): 0%
ALOMY percentage phytotoxicity ([4]; 2.5 g/ha post-emergence): 0%
ALOMY percentage phytotoxicity ([4]; 5 g/ha post-emergence): 0%
ALOMY percentage phytotoxicity ([4]; 10 g/ha post-emergence): 3%
ABUTH percentage phytotoxicity ([5]; 0.625 g/ha post-emergence): 75%
ABUTH percentage phytotoxicity ([5]; 1.25 g/ha post-emergence): 83%
ABUTH percentage phytotoxicity ([5]; 2.5 g/ha post-emergence): 80%
ABUTH percentage phytotoxicity ([5]; 5 g/ha post-emergence): 80%
ABUTH percentage phytotoxicity ([5]; 10 g/ha post-emergence): 85%
AMARE percentage phytotoxicity ([6]; 0.625 g/ha post-emergence): 53%
AMARE percentage phytotoxicity ([6]; 1.25 g/ha post-emergence): 58%
AMARE percentage phytotoxicity ([6]; 2.5 g/ha post-emergence): 65%
AMARE percentage phytotoxicity ([6]; 5 g/ha post-emergence): 58%
AMARE percentage phytotoxicity ([6]; 10 g/ha post-emergence): 70%
STEME percentage phytotoxicity (Stellaria media (STEME); 0.625 g/ha post-emergence): 50%
STEME percentage phytotoxicity (Stellaria media (STEME); 1.25 g/ha post-emergence): 58%
STEME percentage phytotoxicity (Stellaria media (STEME); 2.5 g/ha post-emergence): 75%
STEME percentage phytotoxicity (Stellaria media (STEME); 5 g/ha post-emergence): 70%
STEME percentage phytotoxicity (Stellaria media (STEME); 10 g/ha post-emergence): 85%
